How the values were obtained:
[1] = Increased percentage of formazan production in drug treated virus infected cells to equal 50% of control drug free uninfected cells on serotype 14
[2] = The EC50 was calculated as the concentration of drug that increased the percentage of formazan production in drug treated, virus infected cells to 50% of that produced by drug free uninfected cells on serotype 1A.
[3] = The EC50 was calculated as the concentration of drug that increased the percentage of formazan production in drug treated,virus infected cells to 50% of that produced by drug free uninfected cells on serotype 10.
[4] = The EC50 was calculated as the concentration of drug that increased the percentage of formazan production in drug treated, virus infected cells to 50% of that produced by drug free uninfected cells on serotype 2.
[5] = The EC50 was calculated as the concentration of drug that increased the percentage of formazan production in drug treated, virus infected cells to 50% of that produced by drug free uninfected cells on serotype 1A.; remark: listed apart in the source

**Q.** Which EC50 [1] does the source give for `CCOC(=O)/C=C/[C@H](CCC(N)=O)NC(=O)[C@@H](CC(=O)[C@H](CC(C)C)NC(=O)OCc1ccccc1)Cc1ccccc1` [(E)-(S)-4-((2R,5S)-2-Benzyl-5-benzyloxycarbonylamino-7-methyl-4-oxo-octanoylamino)-6-carbamoyl-hex-2-enoic acid ethyl ester] here?
**A.** The EC50 was 360 nM.

**Q.** Which EC50 [1] does the source give for `CCOC(=O)/C=C/[C@H](CCC(N)=O)NC(=O)[C@@H](CC(=O)[C@@H](NC(=O)SCc1ccccc1)C(C)C)Cc1ccccc1` [(E)-(S)-4-((2R,5S)-2-Benzyl-5-benzylsulfanylcarbonylamino-6-methyl-4-oxo-heptanoylamino)-6-carbamoyl-hex-2-enoic acid ethyl ester] here?
**A.** The EC50 was 190 nM.

**Q.** For `CCOC(=O)/C=C/[C@H](CCC(N)=O)NC(=O)[C@@H](CC(=O)[C@H](CC(C)C)NC(=O)SCc1ccccc1)Cc1ccccc1` [(E)-(S)-4-((2R,5S)-2-Benzyl-5-benzylsulfanylcarbonylamino-7-methyl-4-oxo-octanoylamino)-6-carbamoyl-hex-2-enoic acid ethyl ester], which EC50 [1] is on record?
**A.** Its EC50 is 680 nM.

**Q.** For `CCOC(=O)/C=C/[C@H](CCC(N)=O)NC(=O)[C@@H](CC(=O)[C@@H](NC(=O)SC1CCCC1)C(C)(C)C)Cc1ccccc1` [(E)-(S)-4-((2R,5S)-2-Benzyl-5-cyclopentylsulfanylcarbonylamino-6,6-dimethyl-4-oxo-heptanoylamino)-6-carbamoyl-hex-2-enoic acid ethyl ester], which EC50 [2] is on record?
**A.** Its EC50 is 430 nM.

**Q.** What about the EC50 [1] of the same compound?
**A.** Its EC50 is 50 nM.

**Q.** Which EC50 [3] does the source give for `CCOC(=O)/C=C/[C@H](CCC(N)=O)NC(=O)[C@@H](CC(=O)[C@@H](NC(=O)SC1CCCC1)C(C)C)Cc1ccccc1` [(E)-(S)-4-((2R,5S)-2-Benzyl-5-cyclopentylsulfanylcarbonylamino-6-methyl-4-oxo-heptanoylamino)-6-carbamoyl-hex-2-enoic acid ethyl ester] here?
**A.** The EC50 was 35 nM.

**Q.** And the EC50 [4]?
**A.** The EC50 was 100 nM.

**Q.** And the EC50 [1]?
**A.** Its EC50 is 20 nM.

**Q.** For `CCOC(=O)/C=C/[C@H](CCC(N)=O)NC(=O)[C@@H](CC(=O)[C@H](CC(C)C)NC(=O)SC1CCCC1)Cc1ccccc1` [(E)-(S)-4-((2R,5S)-2-Benzyl-5-cyclopentylsulfanylcarbonylamino-7-methyl-4-oxo-octanoylamino)-6-carbamoyl-hex-2-enoic acid ethyl ester], which EC50 [1] is on record?
**A.** Its EC50 is 190 nM.

**Q.** Which EC50 [2] does the source give for `CCOC(=O)/C=C/[C@H](CCC(N)=O)NC(=O)[C@@H](CC(=O)[C@@H](NC(=O)SC1CCCC1)C(C)C)Cc1ccc(F)cc1` [(E)-(S)-6-Carbamoyl-4-[(2R,5S)-5-cyclopentylsulfanylcarbonylamino-2-(4-fluoro-benzyl)-6-methyl-4-oxo-heptanoylamino]-hex-2-enoic acid ethyl ester] here?
**A.** The EC50 was 170 nM.

**Q.** And the EC50 [1]?
**A.** Its EC50 is 20 nM.

**Q.** With `CCOC(=O)/C=C/[C@H](CCC(N)=O)NC(=O)[C@@H](CC(=O)[C@H](CC(C)C)NC(=O)SC1CCCC1)Cc1ccc(F)cc1` [(E)-(S)-6-Carbamoyl-4-[(2R,5S)-5-cyclopentylsulfanylcarbonylamino-2-(4-fluoro-benzyl)-7-methyl-4-oxo-octanoylamino]-hex-2-enoic acid ethyl ester] as the compound, how does the EC50 [2] read?
**A.** The EC50 was 600 nM.

**Q.** What about the EC50 [3] of the same compound?
**A.** The EC50 was 1600 nM.

**Q.** And the EC50 [4]?
**A.** The EC50 was 710 nM.

**Q.** What about the EC50 [1] of the same compound?
**A.** The EC50 was 280 nM.

**Q.** Which EC50 [2] does the source give for `CCOC(=O)/C=C/[C@H](CCC(N)=O)NC(=O)[C@@H](CC(=O)[C@@H](NC(=O)SC1CCCC1)C(C)C)Cc1ccc(C)cc1` [(E)-(S)-6-Carbamoyl-4-[(2R,5S)-5-cyclopentylsulfanylcarbonylamino-6-methyl-2-(4-methyl-benzyl)-4-oxo-heptanoylamino]-hex-2-enoic acid ethyl ester] here?
**A.** The EC50 was 160 nM.

**Q.** What about the EC50 [3] of the same compound?
**A.** The EC50 was 60 nM.

**Q.** And the EC50 [4]?
**A.** Its EC50 is 130 nM.

**Q.** What about the EC50 [1] of the same compound?
**A.** The EC50 was 6 nM.

**Q.** Which EC50 [3] does the source give for `CCOC(=O)/C=C/[C@H](CCC(N)=O)NC(=O)[C@@H](CC(=O)[C@@H](NC(=O)SC1CCCC1)C(C)C)Cc1ccc(C(F)(F)F)cc1` [(E)-(S)-6-Carbamoyl-4-[(2R,5S)-5-cyclopentylsulfanylcarbonylamino-6-methyl-4-oxo-2-(4-trifluoromethyl-benzyl)-heptanoylamino]-hex-2-enoic acid ethyl ester] here?
**A.** Its EC50 is 160 nM.

**Q.** What about the EC50 [1] of the same compound?
**A.** The EC50 was 50 nM.

**Q.** Which results are given for `CCOC(=O)/C=C/[C@H](CCC(N)=O)NC(=O)[C@@H](CC(=O)[C@H](CC(C)C)NC(=O)SC1CCCC1)Cc1ccc(C)cc1` [(E)-(S)-6-Carbamoyl-4-[(2R,5S)-5-cyclopentylsulfanylcarbonylamino-7-methyl-2-(4-methyl-benzyl)-4-oxo-octanoylamino]-hex-2-enoic acid ethyl ester]?
**A.** EC50 [3]: 1400 nM; EC50 [4]: 1000 nM; EC50 [5]: 560 nM
